Molecules are shown by their SMILES.

The term Ki denotes the dissociation constant of the complex between target and ligand, obtained from inhibition or displacement.

Assay [1] addresses CB2 receptor (Homo sapiens, UniProt P34972). The format is binding.
Assay [2] has as its system CB2 receptor. The note with it: cited from earlier work.
For assay [3] the following is noted: cited from earlier work.
For assay [4], the system named is CB2 receptor. Conditions: cited from earlier work. This is another data set of the same source.

CB2 receptor (Homo sapiens, UniProt P34972), sequence (P34972 whole entry): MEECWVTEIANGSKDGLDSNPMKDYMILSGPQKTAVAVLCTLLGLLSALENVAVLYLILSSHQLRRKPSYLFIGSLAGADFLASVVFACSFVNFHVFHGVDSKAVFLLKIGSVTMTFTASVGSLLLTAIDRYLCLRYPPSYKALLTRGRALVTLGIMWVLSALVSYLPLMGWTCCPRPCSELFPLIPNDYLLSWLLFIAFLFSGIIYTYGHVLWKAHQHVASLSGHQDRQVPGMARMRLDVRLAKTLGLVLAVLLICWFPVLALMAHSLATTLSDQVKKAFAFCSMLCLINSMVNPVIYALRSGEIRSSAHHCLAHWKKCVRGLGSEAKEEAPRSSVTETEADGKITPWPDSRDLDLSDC

For `CCCCCCC(C)(C)c1ccc([C@H]2CCC[C@@H](O)C2)c(OC)c1` (relative stereo) [JWH-441, (1R*,3S*)3-[2-Methoxy-4-(1,1-dimethylheptyl)phenyl]cyclohexanol], at CB2 receptor [1], the “CB1/CB2 (ratio of Ki)” value is over 12.
For `CCCCCCC(C)(C)c1cc(OC)c2c(c1)OC(C)(C)C1CC=C(C)CC21` (stereo not drawn) [1-methoxy-3-(dimethylheptyl)-•^8-THC], in the assay on CB2 receptor [2], the “selectivity for the CB2 receptor” value is listed as 12 fold. In addition, the inhibition constant Ki on CB2 receptor [2] (read-out: Ki CB2) is 57 nM.
As for `CCCC(C)(C)c1ccc2c(c1)OC(C)(C)[C@@H]1CC=C(C)C[C@@H]21` [JWH-133], in assay [3], the “activity in the mouse model of cannabinoid activity” value is “inactive”. Also, in the assay on CB2 receptor [4], the “agonism at the CB2 receptor” value was “full agonist”. The “selectivity for the CB2 receptor” value in the assay with CB2 receptor [2] is recorded as 200 fold.

The values are drawn from paper PMC2920039 (Bioorganic & medicinal chemistry, 2010).
